# Data reported in PubChem BioAssay AID1963831 (Molecular Pharmacology Branch, DTP, NCI, 2024).
# Tested on: 889142-216-R-J1-PDC complex spheroid viability
# Experiment: Anticancer human tumor 889142-216-R-J1-PDC patient-derived bladder carcinoma cell line growth inhibition [POLQ]
# Conditions: for IC50: curve of first compound; for viability, T/C: stronger effect = lower value
# Summary of the method: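 Complex spheroid viability model combining PDC tumour cells with endothelial (HUVEC) and MSC stromal cells. Novobiocin, ART-558 or RP6685 were tested singly and in combination with standard and investigational anticancer drugs. Each was titrated in half-log steps from near clinical Cmax, or from 10 microM where Cmax was unknown.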
# [1] = second compound 0.0316 µM, first compound 0.0316 µM
# [2] = second compound 0.0316 µM, first compound 0.1 µM
# [3] = second compound 0.0316 µM, first compound 0.316 µM
# [4] = second compound 0.0316 µM, first compound 1 µM
# [5] = second compound 0.0316 µM, first compound 3.16 µM
# [6] = second compound 0.0316 µM, first compound 10 µM
# [7] = second compound 0.1 µM, first compound 0.0316 µM
# [8] = second compound 0.1 µM, first compound 0.1 µM
# [9] = second compound 0.1 µM, first compound 0.316 µM
# [10] = second compound 0.1 µM, first compound 1 µM
# [11] = second compound 0.1 µM, first compound 3.16 µM
# [12] = second compound 0.1 µM, first compound 10 µM
# [13] = second compound 0.316 µM, first compound 0.0316 µM
# [14] = second compound 0.316 µM, first compound 0.1 µM
# [15] = second compound 0.316 µM, first compound 0.316 µM
# [16] = second compound 0.316 µM, first compound 1 µM
# [17] = second compound 0.316 µM, first compound 3.16 µM
# [18] = second compound 0.316 µM, first compound 10 µM
# [19] = second compound 1 µM, first compound 0.0316 µM
# [20] = second compound 1 µM, first compound 0.1 µM
# [21] = second compound 1 µM, first compound 0.316 µM
# [22] = second compound 1 µM, first compound 1 µM
# [23] = second compound 1 µM, first compound 3.16 µM
# [24] = second compound 1 µM, first compound 10 µM
# [25] = second compound 3.16 µM, first compound 0.0316 µM
# [26] = second compound 3.16 µM, first compound 0.1 µM
# [27] = second compound 3.16 µM, first compound 0.316 µM
# [28] = second compound 3.16 µM, first compound 1 µM
# [29] = second compound 3.16 µM, first compound 3.16 µM
# [30] = second compound 3.16 µM, first compound 10 µM
# [31] = second compound 10 µM, first compound 0.0316 µM
# [32] = second compound 10 µM, first compound 0.1 µM
# [33] = second compound 10 µM, first compound 0.316 µM
# [34] = second compound 10 µM, first compound 1 µM
# [35] = second compound 10 µM, first compound 3.16 µM
# [36] = second compound 10 µM, first compound 10 µM
# 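Also: spheroids exposed to compounds for seven days.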
# 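For viability, T/C in this document: 100% = DMSO vehicle control viability.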
smiles,measurement,setting,value
CCCS(=O)(=O)Nc1ccc(F)c(C(=O)c2c[nH]c3ncc(-c4ccc(Cl)cc4)cc23)c1F + COC1C(OC(N)=O)C(O)C(Oc2ccc3c(O)c(NC(=O)c4ccc(O)c(CC=C(C)C)c4)c(=O)oc3c2C)OC1(C)C,IC50,second compound 0.0316 µM,5.53 µM
same,IC50,second compound 0.1 µM,4.99 µM
same,IC50,second compound 0.316 µM,7.02 µM
same,IC50,second compound 1 µM,6.23 µM
same,IC50,second compound 3.16 µM,5.26 µM
same,IC50,second compound 10 µM,6.11 µM
same,"viability, T/C",[1],108%
same,"viability, T/C",[2],108%
same,"viability, T/C",[3],93.5%
same,"viability, T/C",[4],109%
same,"viability, T/C",[5],62.2%
same,"viability, T/C",[6],36.9%
same,"viability, T/C",[7],126%
same,"viability, T/C",[8],110%
same,"viability, T/C",[9],98.5%
same,"viability, T/C",[10],91.9%
same,"viability, T/C",[11],55%
same,"viability, T/C",[12],34.9%
same,"viability, T/C",[13],126%
same,"viability, T/C",[14],98.3%
same,"viability, T/C",[15],92.8%
same,"viability, T/C",[16],99.5%
same,"viability, T/C",[17],69.7%
same,"viability, T/C",[18],39.6%
same,"viability, T/C",[19],101%
same,"viability, T/C",[20],109%
same,"viability, T/C",[21],104%
same,"viability, T/C",[22],93.9%
same,"viability, T/C",[23],64.5%
same,"viability, T/C",[24],40%
same,"viability, T/C",[25],116%
same,"viability, T/C",[26],115%
same,"viability, T/C",[27],98%
same,"viability, T/C",[28],80.4%
same,"viability, T/C",[29],63.9%
same,"viability, T/C",[30],34.6%
same,"viability, T/C",[31],104%
same,"viability, T/C",[32],105%
same,"viability, T/C",[33],95.5%
same,"viability, T/C",[34],90%
same,"viability, T/C",[35],68.2%
same,"viability, T/C",[36],36.2%
CNCc1ccc(-c2[nH]c3cc(F)cc4c3c2CCNC4=O)cc1 + Nc1ccc(C#CCN(C(=O)Cc2ncc(C(F)(F)F)cc2C(F)(F)F)c2ccc(F)cc2)nn1,IC50,second compound 0.0316 µM,> 10 µM
same,IC50,second compound 0.1 µM,> 10 µM
same,IC50,second compound 0.316 µM,> 10 µM
same,IC50,second compound 1 µM,> 10 µM
same,IC50,second compound 3.16 µM,> 10 µM
same,IC50,second compound 10 µM,> 10 µM
same,"viability, T/C",[1],109%
same,"viability, T/C",[2],115%
same,"viability, T/C",[3],123%
same,"viability, T/C",[4],108%
same,"viability, T/C",[5],74.8%
same,"viability, T/C",[6],84.5%
same,"viability, T/C",[7],133%
same,"viability, T/C",[8],93%
same,"viability, T/C",[9],104%
same,"viability, T/C",[10],96.3%
same,"viability, T/C",[11],107%
same,"viability, T/C",[12],83.9%
same,"viability, T/C",[13],144%
same,"viability, T/C",[14],82.9%
same,"viability, T/C",[15],78.2%
same,"viability, T/C",[16],78.2%
same,"viability, T/C",[17],81.2%
same,"viability, T/C",[18],82.8%
same,"viability, T/C",[19],128%
same,"viability, T/C",[20],83.3%
same,"viability, T/C",[21],99.3%
same,"viability, T/C",[22],88.2%
same,"viability, T/C",[23],92.3%
same,"viability, T/C",[24],75.5%
same,"viability, T/C",[25],116%
same,"viability, T/C",[26],96.1%
same,"viability, T/C",[27],134%
same,"viability, T/C",[28],122%
same,"viability, T/C",[29],106%
same,"viability, T/C",[30],81.4%
same,"viability, T/C",[31],125%
same,"viability, T/C",[32],98.4%
same,"viability, T/C",[33],104%
same,"viability, T/C",[34],129%
same,"viability, T/C",[35],108%
same,"viability, T/C",[36],96.8%
COc1cc2cc(C(=O)CCC(=O)O)sc2cc1OC + Nc1ccc(C#CCN(C(=O)Cc2ncc(C(F)(F)F)cc2C(F)(F)F)c2ccc(F)cc2)nn1,IC50,second compound 0.0316 µM,> 10 µM
same,IC50,second compound 0.1 µM,> 10 µM
same,IC50,second compound 0.316 µM,> 10 µM
same,IC50,second compound 1 µM,> 10 µM
same,IC50,second compound 3.16 µM,> 10 µM
same,IC50,second compound 10 µM,> 10 µM
same,"viability, T/C",[1],88.3%
same,"viability, T/C",[2],108%
same,"viability, T/C",[3],96.6%
same,"viability, T/C",[4],92.9%
same,"viability, T/C",[5],108%
same,"viability, T/C",[6],61.9%
same,"viability, T/C",[7],108%
same,"viability, T/C",[8],89%
same,"viability, T/C",[9],82.7%
same,"viability, T/C",[10],115%
same,"viability, T/C",[11],81.9%
same,"viability, T/C",[12],79.2%
same,"viability, T/C",[13],91.7%
same,"viability, T/C",[14],86.5%
same,"viability, T/C",[15],94%
same,"viability, T/C",[16],117%
same,"viability, T/C",[17],78.2%
same,"viability, T/C",[18],78.5%
same,"viability, T/C",[19],82.5%
same,"viability, T/C",[20],96.3%
same,"viability, T/C",[21],93%
same,"viability, T/C",[22],89.5%
same,"viability, T/C",[23],93.3%
same,"viability, T/C",[24],68.2%
same,"viability, T/C",[25],108%
same,"viability, T/C",[26],83.6%
same,"viability, T/C",[27],91.1%
same,"viability, T/C",[28],71.7%
same,"viability, T/C",[29],87.2%
same,"viability, T/C",[30],76.8%
same,"viability, T/C",[31],90.5%
same,"viability, T/C",[32],79%
same,"viability, T/C",[33],93.7%
same,"viability, T/C",[34],101%
same,"viability, T/C",[35],100%
same,"viability, T/C",[36],89.4%
